Source: US12390449B2, “Substituted 2-aminobenzimidazoles analogs as antibiofilm agents” (priority 2018, dated 2025)
Structures can show the parent of a compound that is named as a salt.

test system: Salmonella typhimurium ATCC14028 Biofilms; experiment: Inhibitory effect of test compounds on Salmonella typhimurium ATCC14028 biofilms (crystal violet, 96-well); type: cell-based; conditions: Salmonella enterica, 24 h, read-out: IC50 (μM), inhibition of biofilm formation, S. typhimurium ATCC14028, 24 h at 30° C., crystal violet OD540
Method: Procedure to Determine the Inhibitory Effect of Test Compounds on Salmonella typhimurium ATCC14028 Biofilms: […] Stock solutions of predetermined concentrations of the test compounds were then made in 1 mL of bacterial culture. […] Sample plates were then incubated for 24 h at 30° C. After incubation, the medium was discarded from the wells and the plates were washed thoroughly with water. Plates were then stained with 110 μL of 0.1% solution of crystal violet (CV) and then incubated at ambient temperature for 30 min. Plates were washed with water again and the remaining stain was solubilized with 200 μL of 95% ethanol. A sample of 125 μL of solubilized CV stain from each well was transferred to the corresponding wells of a polystyrene microtiter dish. Biofilm inhibition was quantitated by measuring the OD540 of each well in which a negative control lane wherein no biofilm was formed served as a background and was subtracted out.

Point of comparison: `CCCCCc1ccc(C(=O)Nc2ccc3c(c2)nc(N)n3CCCCc2ccccc2)cc1` [Compound 5b, N-(2-Amino-1-(4-phenylbutyl)-1H-benzo[d]imidazol-5-yl)-4-pentylbenzamide hydrochloride], IC50 9.59 ± 0.23 µM. Against it:
- CCCCCc1ccc(C(=O)Nc2ccc3c(c2)nc(N)n3CCc2ccccc2)cc1 [Compound 1, N-(2-Amino-1-phenethyl-1H-benzo[d]imidazol-5-yl)-4-pentylbenzamide hydrochloride] — within 1.5-fold, 13.1 ± 0.6 µM
- CCCCCCCCn1c(N)nc2cc(NC(=O)c3ccc(CCCCC)cc3)ccc21 [Compound 5a, N-(2-Amino-1-octyl-1H-benzo[d]imidazol-5-yl)-4-pentylbenzamide hydrochloride] — within 1.5-fold, 6.66 ± 0.32 µM
- CCCCCCn1c(N)nc2cc(NC(=O)c3ccc(CCCCC)cc3)ccc21 [Compound 5c, N-(2-Amino-1-hexyl-1H-benzo[d]imidazol-5-yl)-4-pentylbenzamide hydrochloride] — within 1.5-fold, 10.8 ± 0.56 µM
- CCCCCc1ccc(C(=O)Nc2ccc3c(c2)nc(N)n3CCc2c[nH]c3ccccc23)cc1 [Compound 5e, N-(1-(2-(1H-Indol-3-yl)ethyl)-2-amino-1H-benzo[d]imidazol-5-yl)-4-pentylbenzamide hydrochloride] — higher, 10 to 15 µM
- CCCCCc1ccc(C(=O)Nc2ccc3c(c2)nc(N)n3CCCC)cc1 [Compound 5f, N-(2-Amino-1-butyl-1H-benzo[d]imidazol-5-yl)-4-pentylbenzamide hydrochloride] — higher, 15 to 20 µM
- CCCCCc1ccc(C(=O)Nc2ccc3c(c2)nc(N)n3C2CCCC2)cc1 [Compound 5g, N-(2-Amino-1-cyclopentyl-1H-benzo[d]imidazol-5-yl)-4-pentylbenzamide hydrochloride] — higher, 15 to 20 µM
- CCCCCc1ccc(C(=O)Nc2ccc3c(c2)nc(N)n3C2CCCCC2)cc1 [Compound 5h, N-(2-Amino-1-cyclohexyl-1H-benzo[d]imidazol-5-yl)-4-pentylbenzamide hydrochloride] — higher, 15 to 20 µM
- CCCCCc1ccc(C(=O)Nc2ccc3c(c2)nc(N)n3CCc2cnc[nH]2)cc1 [Compound 5j, N-(1-(2-(1H-Imidazol-5-yl)ethyl)-2-amino-1H-benzo[d]imidazol-5-yl)-4-pentylbenzamide dihydrochloride] — higher, 20 to 40 µM
- CCCCCc1ccc(C(=O)Nc2ccc3c(c2)nc(N)n3C(C)C)cc1.Cl [Compound 5k, N-(2-Amino-1-isopropyl-1H-benzo[d]imidazol-5-yl)-4-pentylbenzamide hydrochloride] — higher, 20 to 40 µM
- CCCCCc1ccc(C(=O)Nc2ccc3c(c2)nc(N)n3C)cc1.Cl [Compound 5l, N-(2-Amino-1-methyl-1H-benzo[d]imidazol-5-yl)-4-pentylbenzamide hydrochloride] — higher, > 40 µM
- CCCCCCCCCCn1c(N)nc2cc(NC(=O)c3ccc(CCCCC)cc3)ccc21.Cl [Compound 5m, N-(2-Amino-1-decyl-1H-benzo[d]imidazol-5-yl)-4-pentylbenzamide hydrochloride] — higher, > 50 µM
- CCCCCCCCCCCCn1c(N)nc2cc(NC(=O)c3ccc(CCCCC)cc3)ccc21.Cl [Compound 5n, N-(2-Amino-1-dodecyl-1H-benzo[d]imidazol-5-yl)-4-pentylbenzamide hydrochloride] — higher, > 50 µM
- CCCCCc1ccc(C(=O)Nc2ccc3[nH]c(N)nc3c2)cc1 [Compound 5o, N-(2-Amino-1H-benzo[d]imidazol-5-yl)-4-pentylbenzamide hydrochloride] — higher, 20 to 40 µM
- CCCCCc1ccc(C(=O)Nc2ccc3nc(N)n(CCCC)c3c2)cc1 [Compound 9a, N-(2-Amino-1-butyl-1H-benzo[d]imidazol-6-yl)-4-pentylbenzamide hydrochloride] — higher, 10 to 15 µM
- CCCCCCn1c(N)nc2ccc(NC(=O)c3ccc(CCCCC)cc3)cc21 [Compound 9b, N-(2-Amino-1-hexyl-1H-benzo[d]imidazol-6-yl)-4-pentylbenzamide hydrochloride] — higher, 10 to 15 µM
- CCCCCc1ccc(C(=O)Nc2ccc3nc(N)n(C)c3c2)cc1 [Compound 9c, N-(2-Amino-1-methyl-1H-benzo[d]imidazol-6-yl)-4-pentylbenzamide hydrochloride] — higher, 20 to 40 µM
- CCCCCc1ccc(C(=O)Nc2ccc3nc(N)n(CC)c3c2)cc1 [Compound 9d, N-(2-Amino-1-ethyl-1H-benzo[d]imidazol-6-yl)-4-pentylbenzamide hydrochloride] — higher, 20 to 40 µM
- CCCCCc1ccc(C(=O)Nc2ccc3nc(N)n(C(C)C)c3c2)cc1 [Compound 9e, N-(2-Amino-1-isopropyl-1H-benzo[d]imidazol-6-yl)-4-pentylbenzamide hydrochloride] — higher, 20 to 40 µM
- Nc1nc2cc(NC(=O)c3ccc(Br)c(Br)c3)ccc2n1CCCc1ccccc1 [Compound 10b, N-(2-Amino-1-(3-phenylpropyl)-1H-benzo[d]imidazol-5-yl)-3,4-dibromobenzamide hydrochloride] — lower, < 7 µM
- Nc1nc2cc(NC(=O)c3cc(Br)cc(Br)c3)ccc2n1CCCc1ccccc1 [Compound 10c, N-(2-Amino-1-(3-phenylpropyl)-1H-benzo[d]imidazol-5-yl)-3,5-dibromobenzamide hydrochloride] — lower, < 7 µM
- CCCCc1ccc(C(=O)Nc2ccc3c(c2)nc(N)n3CCCc2ccccc2)cc1 [Compound 10f, N-(2-Amino-1-(3-phenylpropyl)-1H-benzo[d]imidazol-5-yl)-4-butylbenzamide hydrochloride] — higher, 10 to 15 µM
- CCCOc1ccc(C(=O)Nc2ccc3c(c2)nc(N)n3CCCc2ccccc2)cc1 [Compound 10g, N-(2-Amino-1-(3-phenylpropyl)-1H-benzo[d]imidazol-5-yl)-4-propoxybenzamide hydrochloride] — higher, 10 to 15 µM
- CCCCOc1ccc(C(=O)Nc2ccc3c(c2)nc(N)n3CCCc2ccccc2)cc1 [Compound 10j, N-(2-Amino-1-(3-phenylpropyl)-1H-benzo[d]imidazol-5-yl)-4-butoxybenzamide hydrochloride] — higher, 15 to 20 µM
- CCCc1ccc(C(=O)Nc2ccc3c(c2)nc(N)n3CCCc2ccccc2)cc1 [Compound 10k, N-(2-Amino-1-(3-phenylpropyl)-1H-benzo[d]imidazol-5-yl)-4-propylbenzamide hydrochloride] — higher, 15 to 20 µM
- CCCCCCc1ccc(C(=O)Nc2ccc3c(c2)nc(N)n3CCCc2ccccc2)cc1 [Compound 10l, N-(2-Amino-1-(3-phenylpropyl)-1H-benzo[d]imidazol-5-yl)-4-hexylbenzamide hydrochloride] — higher, 15 to 20 µM
- CCCCCCCc1ccc(C(=O)Nc2ccc3c(c2)nc(N)n3CCCc2ccccc2)cc1 [Compound 10m, N-(2-Amino-1-(3-phenylpropyl)-1H-benzo[d]imidazol-5-yl)-4-heptylbenzamide hydrochloride] — higher, 15 to 20 µM
- CCCCCCCCC(=O)Nc1ccc2c(c1)nc(N)n2CCCc1ccccc1 [Compound 10n, N-(2-Amino-1-(3-phenylpropyl)-1H-benzo[d]imidazol-5-yl)nonanamide hydrochloride] — higher, 15 to 20 µM
- CCc1ccc(C(=O)Nc2ccc3c(c2)nc(N)n3CCCc2ccccc2)cc1 [Compound 10o, N-(2-Amino-1-(3-phenylpropyl)-1H-benzo[d]imidazol-5-yl)-4-ethylbenzamide hydrochloride] — higher, 20 to 40 µM
- CCCCCCC(=O)Nc1ccc2c(c1)nc(N)n2CCCc1ccccc1 [Compound 10p, N-(2-Amino-1-(3-phenylpropyl)-1H-benzo[d]imidazol-5-yl)heptanamide hydrochloride] — higher, 20 to 40 µM
- CCCCCCCC(=O)Nc1ccc2c(c1)nc(N)n2CCCc1ccccc1 [Compound 10q, N-(2-Amino-1-(3-phenylpropyl)-1H-benzo[d]imidazol-5-yl)octanamide hydrochloride] — higher, > 40 µM
- CCCCCCCCc1ccc(C(=O)Nc2ccc3c(c2)nc(N)n3CCCc2ccccc2)cc1 [Compound 10r, N-(2-Amino-1-(3-phenylpropyl)-1H-benzo[d]imidazol-5-yl)-4-octylbenzamide hydrochloride] — higher, > 40 µM

same assay, conditions: compared with parent compound 1

`CCCCCc1ccc(C(=O)Nc2ccc3c(c2)nc(N)n3C(C)C)cc1.Cl` [Compound 5k, N-(2-Amino-1-isopropyl-1H-benzo[d]imidazol-5-yl)-4-pentylbenzamide hydrochloride] was tested, and the “antibiofilm activity (in words)” value was “reduced or completely abolished antibiofilm activity”.
In the case of `CCCCCc1ccc(C(=O)Nc2ccc3c(c2)nc(N)n3C)cc1.Cl` [Compound 5l, N-(2-Amino-1-methyl-1H-benzo[d]imidazol-5-yl)-4-pentylbenzamide hydrochloride], the “antibiofilm activity (in words)” value is reported as “reduced or completely abolished antibiofilm activity”.
With `CCCCCCCCCCn1c(N)nc2cc(NC(=O)c3ccc(CCCCC)cc3)ccc21.Cl` [Compound 5m, N-(2-Amino-1-decyl-1H-benzo[d]imidazol-5-yl)-4-pentylbenzamide hydrochloride] the “antibiofilm activity (in words)” value was “reduced or completely abolished antibiofilm activity”.
In the case of `CCCCCCCCCCCCn1c(N)nc2cc(NC(=O)c3ccc(CCCCC)cc3)ccc21.Cl` [Compound 5n, N-(2-Amino-1-dodecyl-1H-benzo[d]imidazol-5-yl)-4-pentylbenzamide hydrochloride], the “antibiofilm activity (in words)” value is reported as “reduced or completely abolished antibiofilm activity”.

same assay, conditions: read-out: IC50 (μM), inhibition of biofilm formation; S. typhimurium ATCC14028, 24 h at 30° C., crystal violet OD540

`CCCCCc1ccc(C(=O)Nc2ccc3c(c2)nc(N)n3CC(C)C)cc1` [Compound 5d, N-(2-Amino-1-isbutyl-1H-benzo[d]imidazol-5-yl)-4-pentylbenzamide hydrochloride] and `CCCCCCCCCC(=O)Nc1ccc2c(c1)nc(N)n2CCCc1ccccc1` [Compound 10h, N-(2-Amino-1-(3-phenylpropyl)-1H-benzo[d]imidazol-5-y0decanamide hydrochloride] fall in the same range of IC50: 10 to 15 µM for the first, 10 to 15 µM for the second.

Work on `CCCCCCCCCCC(=O)Nc1ccc2c(c1)nc(N)n2CCCc1ccccc1` [Compound 10i, N-(2-Amino-1-(3-phenylpropyI)-1H-benzo[d]imidazol-5-yhundecanamide hydrochloride] yielded an IC50 of 10 to 15 µM.

same assay, conditions: read-out: IC50 (μM), inhibition of biofilm formation; S. typhimurium ATCC14028, 24 h at 30° C., crystal violet OD540; hydrochloride

`CCCCCCCCc1ccc(C(=O)Nc2ccc3c(c2)nc(N)n3CCCc2ccccc2)cc1` [Compound 10r, N-(2-Amino-1-(3-phenylpropyl)-1H-benzo[d]imidazol-5-yl)-4-octylbenzamide hydrochloride] and `CCCCCCCCCCCC(=O)Nc1ccc2c(c1)nc(N)n2CCCc1ccccc1` [Compound 10s, N-(2-Amino-1-(3-phenylpropyl)-1H-benzo[d]imidazol-5-yhdodecanamide hydrochloride] cannot be ordered by IC50: > 50 µM for the first, > 50 µM for the second.

same assay, conditions: read-out: IC50 (μM), inhibition of biofilm formation; S. typhimurium ATCC14028, 24 h at 30° C., crystal violet OD540; listed as 15b, hydrochloride

`Nc1nc2cc(NC(=O)c3ccc(Br)c(Br)c3)ccc2n1CCCc1ccccc1` [Compound 10b, N-(2-Amino-1-(3-phenylpropyl)-1H-benzo[d]imidazol-5-yl)-3,4-dibromobenzamide hydrochloride] gave an IC50 of 5.38 ± 0.79 µM.

same assay, conditions: read-out: IC50 (μM), inhibition of biofilm formation; S. typhimurium ATCC14028, 24 h at 30° C., crystal violet OD540; listed as 15c, hydrochloride

Compound `Nc1nc2cc(NC(=O)c3cc(Br)cc(Br)c3)ccc2n1CCCc1ccccc1` [Compound 10c, N-(2-Amino-1-(3-phenylpropyl)-1H-benzo[d]imidazol-5-yl)-3,5-dibromobenzamide hydrochloride] has an IC50 of 5.58 ± 0.21 µM.
